The source of these data is US12559504B2, “Benzotriazole derivative” (UBE CORPORATION, priority 2019, dated 2026).

Data set [1] has as its target T1, GST fusion human Keap1 (amino acid residue: 325-624) protein (Homo sapiens, UniProt Q14145).
T1 construct: GST fusion human Keap1 (amino acid residue: 325-624) protein; purchased Protein tech Ag0779
In words: Keap1-Nrf2 binding inhibition test (fluorescence polarization). Conditions: compound concentration of 100 nM; read-out: inhibition rate. The essentials: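 Fluorescence polarization with FITC-labelled Nrf2 peptide (FITC-Ahx-LDEETGEFL-NH2) and GST-human Keap1 (325-624) in 20 mM Tris pH 7.5, 150 mM NaCl, 0.05% Tween 20, 5 mM DTT, BSA; 30 min at room temperature, ex 482/em 530 nm. Percent inhibition at 100 nM compound, Keap1-free wells = 100%.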
A general note: Polarisation of emitted light reports the rotation of a fluorescent probe.

Data set [2] has as its system NQO1. The experiment in a line: NQO1 enzyme induction test (in vitro) in Hepa1c1c7 cells. The class given is cell-based. Conditions: Mus musculus, Hepa-1c1c7, 48 h, concentration to elevate the NQO1 activity by 1.5 times, about 48 hours, read-out: EC150. The essentials: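 Mouse Hepa1c1c7 cells treated about 48 h with compound (0.1% DMSO final), then lysed. NQO1 activity read as MTT reduction at 540 nm with menadione substrate, 5 min at room temperature, and corrected for cell number by CellTiter-Glo. EC150 is the concentration raising NQO1 activity 1.5-fold.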

Data set [3] is described as follows: Metabolism test using human liver microsome fractions. Format: in vitro ADME. Conditions: human liver microsomes, test compound 10 μmol/L, NADPH and UDP-glucuronic acid, 37° C. In short, it runs like this:
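Compound depletion at 10 μmol/L final, 37 °C, followed by UV-HPLC of acetonitrile-quenched aliquots taken 0, 5, 10, 15, 20, 30 min; incubations contained microsomes (1 mg protein, human or monkey) with NADPH and UDPGA cofactors. Rate = slope over linear range.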

Data set [4] relates to NQO1. The experiment in a line: NQO1 expression induction test in mouse kidney (single administration). The class given is in vivo. Conditions: Mus musculus, po, 6 h, Dose 20 mg/kg, BALB/c mouse kidney, 6 hours after administration, ratio to control group. In short, it runs like this: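 Female BALB/c mice received a single oral dose of compound in 0.5% methylcellulose, with untreated mice as controls. Six hours later, left-kidney NQO1 mRNA was measured by SYBR real-time RT-PCR normalised to GAPDH. Induction was expressed as the ratio of mean treated to mean control expression.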

T1 sequence (Q14145 325-624): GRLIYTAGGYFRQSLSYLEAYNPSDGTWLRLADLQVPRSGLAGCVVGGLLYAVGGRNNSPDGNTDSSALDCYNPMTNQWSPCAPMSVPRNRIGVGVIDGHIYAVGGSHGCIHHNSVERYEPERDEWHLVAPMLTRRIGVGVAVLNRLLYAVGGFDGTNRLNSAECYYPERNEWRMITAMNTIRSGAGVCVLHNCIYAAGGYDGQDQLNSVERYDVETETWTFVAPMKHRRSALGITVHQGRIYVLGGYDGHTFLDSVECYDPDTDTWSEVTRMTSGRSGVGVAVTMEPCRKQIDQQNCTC

In general, inhibition refers to how much of the control response was suppressed. By fold induction is commonly meant the signal under treatment as a multiple of the control signal. Turning to `CC[C@@H]1CN(Cc2cc(C(c3ccc4c(nnn4C)c3C)C(C)(C)C(=O)O)ccc2C)Cc2cc3nccc(C)c3cc2O1` (stereo partly drawn) [Example 71-(b), 3-(1,4-dimethyl-1H-benzo[d][1,2,3]triazol-5-yl)-3-(3-(((R)-2-ethyl-10-methyl-2,3-dihydro-[1,4]oxazepino[7,6-g]quinolin-4 (5H)-yl)methyl)-4-methylphenyl)-2,2-dimethylpropanoic Acid], the inhibition at 0.1 µM in data set [1] was at least 50%. Also, the EC (1.5-fold NQO1 activity) in the data set with NQO1 [2] lay in the range of 0.0005 to 0.005 µM. Besides, the Human metabolic rate entry in data set [3] is “D (200≤metabolic rate<250 pmol/min/me protein)”. Further, the fold induction at 20 mg/kg in the data set with NQO1 [4] is over 6.
The corresponding values for `CC[C@@H]1CN(Cc2cc(C(c3ccc4c(nnn4C)c3C)C(C)(C)C(=O)O)ccc2C)Cc2cc3ccsc3cc2O1` (stereo partly drawn) [Example 72-(b), 3-(1,4-dimethyl-1H-benzo[d][1,2,3]triazol-5-yl)-3-(3-(((R)-2-ethyl-2,3-dihydrothieno[2′,3′:4,5]benzo[1,2-f][1,4]oxazepin-4(5H)-yl)methyl)-4-methylphenyl)-2,2-dimethylpropanoic Acid] are at least 50%, 0.005 to 0.05 µM, “A (metabolic rate<100 pmol/min/mg protein)” and at most 3.
Regarding `CC[C@@H]1CN(Cc2cc(C(c3ccc4c(nnn4C)c3C)C(C)(C)C(=O)O)ccc2C)Cc2cc3c(cc2O1)SCC3` (stereo partly drawn) [Example 73-(b), 3-(1,4-dimethyl-1H-benzo[d][1,2,3]triazol-5-yl)-3-(3-(((R)-2-ethyl-2,3,7,8-tetrahydrothieno[2′,3′:4,5]benzo[1,2-f][1,4]oxazepin-4(5H)-yl)methyl)-4-methylphenyl)-2,2-dimethylpropanoic Acid], the inhibition at 0.1 µM in data set [1] is at least 50%. Besides, in the data set with NQO1 [2], the EC (1.5-fold NQO1 activity) was 0.005 to 0.05 µM. For the same compound, the Human metabolic rate result in data set [3] was “C (150≤metabolic rate<200 pmol/min/mg protein)”. The fold induction at 20 mg/kg in the data set with NQO1 [4] was over 6.
Taken in the same sequence, the figures for `CC[C@@H]1CN(Cc2cc(C(c3ccc4c(nnn4C)c3C)C(C)(C)C(=O)O)ccc2C)Cc2cc3c(cc2O1)S(=O)(=O)CC3` (stereo partly drawn) [Example 74-(b), 3-(1,4-dimethyl-1H-benzo[d][1,2,3]triazol-5-yl)-3-(3-(((R)-2-ethyl-9,9-dioxide-2,3,7,8-tetrahydrothieno[2′,3′:4,5]benzo[1,2-f][1,4]oxazepin-4(5H)-yl)methyl)-4-methylphenyl)-2,2-dimethylpropanoic Acid] were at least 50%, 0.0005 to 0.005 µM, “B (100≤metabolic rate<150 pmol/min/mg protein)” and 3 to 6.
As to `Cc1ccc(C(c2ccc3c(nnn3C)c2C)C(C)(C)C(=O)O)cc1CN1Cc2cc3ncccc3cc2O[C@H](C)C1` (stereo partly drawn) [Example 75-(b), 3-(1,4-dimethyl-1H-benzo[d][1,2,3]triazol-5-yl)-2,2-dimethyl-3-(4-methyl-3-(((R)-2-methyl-2,3-dihydro-[1,4]oxazepino[7,6-g]quinolin-4 (5H)-yl)methyl)phenyl) propanoic Acid], the inhibition at 0.1 µM in data set [1] is at least 50%. Further, the EC (1.5-fold NQO1 activity) in the data set with NQO1 [2] fell in the range of 0.0005 to 0.005 µM. The Human metabolic rate result in data set [3] is listed as “E (metabolic rate≥250 pmol/min/mg protein)”. The fold induction at 20 mg/kg with NQO1 [4] was over 6.
The corresponding values for `Cc1ccc(C(c2ccc3c(nnn3C)c2C)C(C)(C)C(=O)O)cc1CN1Cc2cc3ncccc3cc2OC2(CC2)C1` (stereo not drawn) [Example 76-(b), 3-(3-((3′H-spiro[cyclopropane-1,2′-[1,4]oxazepino[7,6-g]quinoline]-4′ (5′H)-yl)methyl)-4-methylphenyl)-3-(1,4-dimethyl-1H-benzo[d][1,2,3]triazol-5-yl)-2,2-dimethylpropanoic Acid] are at least 50%, 0.0005 to 0.005 µM, “B (100≤metabolic rate<150 pmol/min/mg protein)” and over 6.
